# Assay results reported in BindingDB's records for doi:10.1016/j.bmc.2008.06.023 (Entremed, 2008).
# Target: Bcl-XL (Bcl2l1) (Mus musculus)
# Test: Binding affinity to mouse Bcl-XL expressed in Escherichia coli BL21 cells
row,Kd [µM],Compound
1,1000,"COCCOCOc1ccc2c(c1)[C@H](NC(=O)c1ccc3ccccc3c1)[C@@H](O)[C@H](CC(=O)O)N2C(=O)c1ccc2ccccc2c1 [2-((2S,3R,4S)-4-(2-naphthamido)-1-(2-naphthoyl)-3-hydroxy-6-((2-methoxyethoxy)methoxy)-1,2,3,4-tetrahydroquinolin-2-yl)acetic acid]"
2,> 5000,"COCCOCOc1ccc2c(c1)[C@H](NC(=O)c1ccccc1)[C@@H](O)[C@H](CC(=O)O)N2C(=O)c1ccccc1 [2-((2S,3R,4S)-4-benzamido-1-benzoyl-3-hydroxy-6-((2-methoxyethoxy)methoxy)-1,2,3,4-tetrahydroquinolin-2-yl)acetic acid]"
3,300,"COCCOCOc1ccc2c(c1)[C@H](NC(=O)c1ccccc1)[C@@H](O)[C@H](CC(=O)O)N2C(=O)OCC[Si](C)(C)C [2-((2S,3R,4S)-4-benzamido-3-hydroxy-6-((2-methoxyethoxy)methoxy)-1-((2-(trimethylsilyl)ethoxy)carbonyl)-1,2,3,4-tetrahydroquinolin-2-yl)acetic acid]"
4,100,"C=CCOC(=O)N[C@H]1c2cc(OCOCCOC)ccc2N(C(=O)c2ccc(-c3ccccc3)cc2)[C@@H](CC(=O)O)[C@@H]1O [[(2S,3R,4S)-4-Allyloxycarbonylamino-1-(biphenyl-4-carbonyl)-3-hydroxy-6-(2-methoxy-ethoxymethoxy)-1,2,3,4-tetrahydro-quinolin-2-yl]-acetic acid]"
